# Source: patent US20070213303A1, “Methods for reducing platelet activation and for the treatment of thrombotic events” (priority 2005, published 2007)
# Columns and labels:
# Format in all cases: cell-based, human
# GP Ib (CD42b) = test: Flow cytometry, platelet surface expression of CD42b
# Experimental: (§1) Venous blood (8 ml) is collected in a plastic tube containing 2 ml of acid-citrate-dextrose (ACD) (7.3 g citric acid, 22.0 g sodium citrate.2H2O and 24.5 glucose in 1000 ml distilled water) and mixed well. The blood-ACD mixture is centrifuged at 1000 r.p.m. for 10 minutes at room temperature. The upper ⅔ of the platelet-rich plasma (PRP) is then collected and adjusted to pH=6.5 by adding ACD. The PRP is then centrifuged at 3000 r.p.m. for 10 minutes. The supernatant is removed and the platelet pellet is gently resuspended in 4 cc of the washing buffer (10 mM Tris/HCl, 0.15 M NaCl, 20 mM EDTA, pH=7.4). Platelets are washed in the washing buffer, and in TBS (10 mM Tris, 0.15 M NaCl, pH=7.4). All cells are then divided into the appropriate number of tubes. By way of example, if 9 different surface markers are evaluated, as described herein, then the cells should be divided into ten tubes, such that nine tubes containing washed platelets are incubated with 5 μl fluorescein isothiocyanate (FITC)-conjugated antibodies in the dark at +4° C. for 30 minutes, and one tube remains unstained and serves as a negative control. Surface antigen expression is measured with monoclonal murine anti-human antibodies, such as CD9 (p24); CD41a (IIb/IIIa, aIIbb3); CD42b (Ib); CD61(IIIa) (DAKO Corporation, Carpinteria, Calif.); CD49b (VLA-2, or a2b1); CD62p (P-selectin); CD31 (PECAM-1); CD 41b (IIb); and CD51/CD61 (vitronectin receptor, avb3) (PharMingen, San Diego Calif.), as the expression of these antigens on the cells is associated with platelet activation. After incubation, the cells are washed with TBS and resuspended in 0.25 ml of 1% paraformaldehyde. Samples are stored in the refrigerator at +4° C., and analyzed on a Becton Dickinson FACScan flow cytometer with laser output of 15 mw, excitation at 488 nm, and emission detection at 530±30 nm. The data can be collected and stored in list mode, and then analyzed using CELLQuest® software. FACS procedures are described in detail in, e.g., Gurbel, P. A. et al., J Amer Coll Cardiol 31: 1466-1473 (1998); Serebruany, V. L. et al., Am Heart J 136: 398-405 (1998); Gurbel, P. A. et al., Coron Artery Dis 9: 451-456 (1998) and Serebruany, V. L. et al., Arterioscl Thromb Vasc Biol 19: 153-158 (1999).
# (§2) Four cc of blood is collected in a tube, containing 2 cc of acid-citrate-dextrose (ACD; 7.3 g citric acid, 22.0 g sodium citrate.2H2O and 24.5 glucose in 1000 ml distilled water) and mixed well. The buffer, TBS (10 mM Tris, 0.15 M NaCl, pH 7.4) and the following fluorescein isothiocyanate (FITC) conjugated monoclonal antibodies (PharMingen, San Diego, Calif., USA, and DAKO, Calif., USA) are removed from a refrigerator and allowed to warm at room temperature (RT) prior to their use. The non-limiting examples of antibodies that can be used include CD41 (IIb/IIIa), CD31 (PECAM-1), CD62p (P-selectin), and CD51/61 (Vitronectin receptor). For each subject, six amber tubes (1.25 ml) are one Eppendorf tube (1.5 ml) are obtained and marked appropriately 450 μl of TBS buffer is pipetted to the labeled Eppendorf tube. A patient's whole blood tube is inverted gently twice to mix, and 50 μl of whole blood is pipetted to the appropriately labeled Eppendorf tube. The Eppendorf tube is capped and the diluted whole blood is mixed by inverting the Eppendorf tube gently two times, followed by pipetting 50 μl of diluted whole blood to each amber tube. […] The samples are analyzed on a Becton Dickinson FACScan flow cytometer. […]
# PAR-1 (SPAN-12) = test: Flow cytometry, PAR-1 thrombin receptor expression (SPAN-12)
# Experimental: as §1, §2
# [1] = tested on: vitronectin receptor (CD51/CD61); test: Flow cytometry, platelet surface expression of CD51/61
# Experimental: as §1, §2
# thrombospondin (CD36) = test: Flow cytometry, platelet surface expression of thrombospondin
# Experimental: as §1, §2
# PAC-1 = test: Flow cytometry, activity with PAC-1 antibody
# Experimental: as §1, §2
# CD41a = test: Flow cytometry, platelet surface expression of CD41a
# Experimental: as §1, §2
# platelets = test: Conventional platelet aggregation induced by collagen
# Experimental: Trisodium citrate (3.8%) and whole blood is immediately mixed in a 1:9 ratio, and then centrifuged at 1200 g for 2.5 minutes, to obtain platelet-rich plasma (PRP), which is kept at room temperature for use within 1 hour for platelet aggregation studies. Platelet count is determined in each PRP sample with a Coulter Counter ZM (Coulter Co., Hialeah, Fla.). Platelet numbers are adjusted to 3.50×10^8/ml for aggregation with homologous platelet-poor plasma. PRP and whole blood aggregation tests are performed simultaneously. Whole blood is diluted 1:1 with the 0.5 ml PBS, and then swirled gently to mix. The cuvette with the stirring bar is placed in the incubation well and allowed to warm to 37° C. for 5 minutes. Then the samples are transferred to the assay well. An electrode is placed in the sample cuvette. […] All agonists are obtained, e.g., from Chronolog Corporation (Hawertown, Pa.). Platelet aggregation studies are performed using a Chrono-Log Whole Blood Lumi-Aggregometer (model 560-Ca). Platelet aggregability is expressed as the percentage of light transmittance change from baseline using platelet-poor plasma as a reference at the end of recording time for plasma samples, or as a change in electrical impedance for whole blood samples. Aggregation curves are recorded for 4 minutes and analyzed according to internationally established standards using Aggrolink® software.
# The effect of doses (15 μg/ml to 90 μg/ml) of Compound A on in vitro platelet characteristics in subjects with multiple factors for vascular disease was tested.
# The in vitro effects of pre-incubation with escalating concentrations of Compound A on platelet aggregation, and expression of major surface receptors by flow cytometry, were assessed in 20 aspirin naïve volunteers with multiple risk factors for vascular disease.
# P-selectin (CD62p) = test: Flow cytometry, platelet surface expression of CD62p
# Experimental: as §1, §2
compound,measurement,setting,value
CC(C)(Sc1cc(C(C)(C)C)c(O)c(C(C)(C)C)c1)Sc1cc(C(C)(C)C)c(OC(=O)CCC(=O)O)c(C(C)(C)C)c1 [Compound A],Flow cytometry CD42b,GP Ib (CD42b); preincubation 15 μg/mL,151.6 ± 11.2
same,Flow cytometry CD42b,GP Ib (CD42b); preincubation 30 μg/mL,142.8 ± 11.4
same,Flow cytometry CD42b,GP Ib (CD42b); preincubation 60 μg/mL,137.7 ± 8.9
same,Flow cytometry CD42b,GP Ib (CD42b); preincubation 90 μg/mL,111.2 ± 11.2
same,Surface platelet expression of GP Ib (CD42b),GP Ib (CD42b); pretreated samples,decreased
same,Flow cytometry PAR-1 (SPAN-12),PAR-1 (SPAN-12); preincubation 15 μg/mL,25.0 ± 4.2
same,Flow cytometry PAR-1 (SPAN-12),PAR-1 (SPAN-12); preincubation 30 μg/mL,23.9 ± 3.8
same,Flow cytometry PAR-1 (SPAN-12),PAR-1 (SPAN-12); preincubation 60 μg/mL,24.4 ± 2.8
same,Flow cytometry PAR-1 (SPAN-12),PAR-1 (SPAN-12); preincubation 90 μg/mL,19.4 ± 3.5
same,"PAR-1 thrombin receptor expression, intact epitope",PAR-1 (SPAN-12); pretreated samples,reduced
same,vitronectin receptor (CD51/CD61),[1],little or no effect
same,Flow cytometry CD51/61,[1]; preincubation 15 μg/mL,10.9 ± 2.1
same,Flow cytometry CD51/61,[1]; preincubation 30 μg/mL,11.4 ± 1.6
same,Flow cytometry CD51/61,[1]; preincubation 60 μg/mL,11.8 ± 2.1
same,Flow cytometry CD51/61,[1]; preincubation 90 μg/mL,10.2 ± 1.7
same,thrombospondin (CD36),thrombospondin (CD36),little or no effect
same,Flow cytometry Thrombospondin,thrombospondin (CD36); preincubation 15 μg/mL,10.1 ± 1.9
same,Flow cytometry Thrombospondin,thrombospondin (CD36); preincubation 30 μg/mL,11.0 ± 2.3
same,Flow cytometry Thrombospondin,thrombospondin (CD36); preincubation 60 μg/mL,10.3 ± 1.9
same,Flow cytometry Thrombospondin,thrombospondin (CD36); preincubation 90 μg/mL,9.6 ± 2.0
same,Flow cytometry PAC-1,PAC-1; preincubation 15 μg/mL,11.4 ± 1.1
same,Flow cytometry PAC-1,PAC-1; preincubation 30 μg/mL,11.2 ± 1.4
same,Flow cytometry PAC-1,PAC-1; preincubation 60 μg/mL,10.9 ± 2.2
same,Flow cytometry PAC-1,PAC-1; preincubation 90 μg/mL,10.3 ± 1.8
same,GP IIb/IIIa activity with PAC-1 antibody,PAC-1; pretreated samples,decreased
same,Flow cytometry CD41a,CD41a; preincubation 15 μg/mL,185.3 ± 21.3
same,Flow cytometry CD41a,CD41a; preincubation 30 μg/mL,170.3 ± 16.7
same,Flow cytometry CD41a,CD41a; preincubation 60 μg/mL,165.5 ± 16.7
same,Flow cytometry CD41a,CD41a; preincubation 90 μg/mL,160.9 ± 23.2
same,Surface platelet expression of GP IIb/IIIa (CD41a) antigen,CD41a; pretreated samples,decreased
same,collagen-induced aggregation,platelets,little or no effect
same,"Conventional platelet aggregation, Collagen 5 μg/ml",platelets; preincubation 15 μg/mL,64.95 ± 5.1%
same,"Conventional platelet aggregation, Collagen 5 μg/ml",platelets; preincubation 30 μg/mL,65.6 ± 8.7%
same,"Conventional platelet aggregation, Collagen 5 μg/ml",platelets; preincubation 60 μg/mL,66.6 ± 6.8%
same,"Conventional platelet aggregation, Collagen 5 μg/ml",platelets; preincubation 90 μg/mL,65.5 ± 6.0%
same,P-selectin (CD62p),P-selectin (CD62p),little or no effect
same,Flow cytometry CD62p,P-selectin (CD62p); preincubation 15 μg/mL,9.8 ± 1.8
same,Flow cytometry CD62p,P-selectin (CD62p); preincubation 30 μg/mL,10.2 ± 1.9
same,Flow cytometry CD62p,P-selectin (CD62p); preincubation 60 μg/mL,10.5 ± 1.8
same,Flow cytometry CD62p,P-selectin (CD62p); preincubation 90 μg/mL,9.7 ± 1.8
